Read-outs that look alike come from different tables or passages of the source.
Assays:
human A2AAR [1] = biological target: T1, human A2AAR (Homo sapiens, UniProt P29274); conditions: cited from earlier work
T1 construct: expressed in transfected cells; host or cells: CHO cells, crude membrane fractions

human A2BAR [2] = biological target: T2, human A2BAR (Homo sapiens, UniProt P29275); conditions: inhibition of NECA-stimulated AC activity, CHO cells expressing human A2BAR; geometric mean with 95% confidence limits; read-out: IC50 A2B; cited from earlier work
T2 construct: expressed in transfected cells; host or cells: CHO cells, crude membrane fractions
T2 sequence (P29275 1-332): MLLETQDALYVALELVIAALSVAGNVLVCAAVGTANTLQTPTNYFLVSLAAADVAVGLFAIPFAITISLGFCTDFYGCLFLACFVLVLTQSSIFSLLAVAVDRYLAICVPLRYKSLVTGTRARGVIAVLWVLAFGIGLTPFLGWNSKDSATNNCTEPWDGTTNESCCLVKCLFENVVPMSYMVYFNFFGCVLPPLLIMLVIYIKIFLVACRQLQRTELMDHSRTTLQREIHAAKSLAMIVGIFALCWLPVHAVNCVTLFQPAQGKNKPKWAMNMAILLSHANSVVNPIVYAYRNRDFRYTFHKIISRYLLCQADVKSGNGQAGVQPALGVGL

human A2AAR [3] = biological target: T1, human A2AAR; experiment: Radioligand binding, displacement of [3H]NECA at human A2AAR in CHO cells; conditions: for Selectivity A1/A2A / Selectivity A3/A2A: ratio of Ki values at human ARs; for Ki: [3H]-NECA displacement, geometric mean with 95% confidence limits, read-out: Ki A2A
Procedure: (§1) The radioligand binding experiments were carried out exactly as described previously. For A1AR binding, 1 nM [^3H]CCPA was used as a radioligand, whereas 30 and 10 nM [^3H]NECA were used for A2A and A3 ARs, respectively. Nonspecific binding was determined in the presence of 1 mM theophylline (A1AR) or […] R-PIA (A2A and A3 ARs). Ki values were calculated from competition curves by nonlinear curve fitting with the program SCTFIT [31].
(§2) CHO cells stably transfected with human ARs were grown adherently and maintained in Dulbecco’s Modified Eagles Medium with nutrient mixture F12 (DMEM/F12) without nucleosides, containing 10% fetal calf serum, penicillin (100 U/mL), streptomycin (100 μg/mL), L-glutamine (2 mM), and Geneticin (G-418, 0.2 mg/mL) at 37 °C in 5% CO2/95% air, as described earlier. For radioligand binding studies and measurement of adenylyl cyclase activity, crude membrane fractions were prepared from fresh or frozen cells with two different protocols described earlier. The determination of adenylyl cyclase activity followed the procedure described earlier. IC50 values for the inhibition of adenylyl cyclase stimulated (in the case of A2BAR) with 5 μM NECA were calculated with the Hill equation and converted to Ki values with the Cheng and Prusoff equation [32].
(§3) [^3H]CCPA (2-chloro-N^6-cyclopentylAdo) and [^3H]NECA (5′-N-ethylcarboxamidoAdo) were used as specific radioligands at A1ARand A2A / A3 ARs, respectively. Furthermore, the ability of the same compounds to inhibit NECA-stimulated adenylyl cyclase activity was evaluated at the A2BAR subtype. The results of the binding studies (A1, A2A, and A3 ARs) and functional data (A2BAR) are reported in Table 1 as Ki or IC50 values in nM, together with the data on the reference compounds 1–3.

human A3AR [4] = biological target: T3, human A3AR (Homo sapiens, UniProt P0DMS8); conditions: [3H]-NECA displacement, human A3AR in CHO cells; geometric mean with 95% confidence limits; read-out: Ki A3; cited from earlier work
T3 construct: expressed in transfected cells; host or cells: CHO cells, crude membrane fractions
T3 sequence (P0DMS8 1-318): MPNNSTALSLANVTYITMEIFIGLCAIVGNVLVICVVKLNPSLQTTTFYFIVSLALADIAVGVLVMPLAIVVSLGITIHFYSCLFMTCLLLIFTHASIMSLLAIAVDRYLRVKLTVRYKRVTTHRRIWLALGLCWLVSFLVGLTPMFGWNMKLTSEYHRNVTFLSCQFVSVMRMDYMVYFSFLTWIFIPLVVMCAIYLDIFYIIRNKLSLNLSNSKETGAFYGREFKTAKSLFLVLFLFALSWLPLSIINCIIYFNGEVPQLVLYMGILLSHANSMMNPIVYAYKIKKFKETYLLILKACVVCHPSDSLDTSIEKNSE

human A1AR [5] = biological target: T4, human A1AR (Homo sapiens, UniProt P30542); conditions: [3H]-CCPA displacement, human A1AR in CHO cells; geometric mean with 95% confidence limits; read-out: Ki A1; cited from earlier work
T4 construct: expressed in transfected cells; host or cells: CHO cells, crude membrane fractions
T4 sequence (P30542 1-326): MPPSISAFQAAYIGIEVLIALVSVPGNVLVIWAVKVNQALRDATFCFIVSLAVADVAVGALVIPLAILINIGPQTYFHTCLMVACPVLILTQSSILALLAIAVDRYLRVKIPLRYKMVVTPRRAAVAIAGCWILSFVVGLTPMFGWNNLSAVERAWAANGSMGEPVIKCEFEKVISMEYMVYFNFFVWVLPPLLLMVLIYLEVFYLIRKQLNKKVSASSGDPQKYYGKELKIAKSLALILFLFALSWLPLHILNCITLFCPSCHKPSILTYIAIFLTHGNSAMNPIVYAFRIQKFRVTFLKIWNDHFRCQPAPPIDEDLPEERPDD

human A3AR [6] = biological target: T3, human A3AR; experiment: Radioligand binding, displacement of [3H]NECA at human A3AR in CHO cells; conditions: [3H]-NECA displacement, read-out: Ki A3
Procedure: as §1, §2, §3

human A1AR [7] = biological target: T4, human A1AR; experiment: Radioligand binding, displacement of [3H]CCPA at human A1AR in CHO cells; conditions: for Ki: [3H]-CCPA displacement, geometric mean with 95% confidence limits, read-out: Ki A1
Procedure: as §1, §2, §3

human A2BAR [8] = biological target: T2, human A2BAR; experiment: Inhibition of NECA-stimulated adenylyl cyclase activity at human A2BAR; format: biochemical; conditions: inhibition of NECA-stimulated AC activity, CHO cells expressing human A2BAR, read-out: IC50 A2B
Procedure: as §2, §3

[9] = [3H]-NECA displacement, human A2AAR in CHO cells, geometric mean with 95% confidence limits, read-out: Ki A2A
[10] = geometric mean with 95% confidence limits

T1 sequence (P29274 whole entry): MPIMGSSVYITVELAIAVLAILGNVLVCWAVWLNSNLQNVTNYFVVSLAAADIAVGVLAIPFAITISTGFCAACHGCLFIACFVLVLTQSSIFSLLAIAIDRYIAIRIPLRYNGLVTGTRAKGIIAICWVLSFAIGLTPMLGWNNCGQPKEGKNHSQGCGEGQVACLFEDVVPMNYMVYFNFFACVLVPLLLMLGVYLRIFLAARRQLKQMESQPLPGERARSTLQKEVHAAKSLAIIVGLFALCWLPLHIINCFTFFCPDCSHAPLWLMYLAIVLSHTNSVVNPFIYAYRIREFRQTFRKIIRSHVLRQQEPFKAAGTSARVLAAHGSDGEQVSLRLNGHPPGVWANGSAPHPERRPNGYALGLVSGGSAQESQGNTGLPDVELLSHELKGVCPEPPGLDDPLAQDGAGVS

For `CCOc1nc2c(N)ncnc2n1CC` [ANR 94, 9-ethyl-8-ethoxyadenine, reference compound], the Ki (human A2AAR [1]; read-out: Ki at the human A2AAR) is given as 46 nM.

In the case of `CCn1c(-c2ccco2)nc2c(N)nc(OCCc3ccccc3)nc21` [Compound 2, 9-ethyl-8-furyl-2-phenetoxyadenine], the IC50 (human A2BAR [2]) is given as 521 nM, the “Selectivity A1/A2A” value (human A2AAR [3]) is given as 2.6 and the “Selectivity A3/A2A” value (human A2AAR [3]) is given as 7.3. The Ki (human A2AAR [1]; [9]) was 2.2 nM, the Ki (human A3AR [4]) was 16 nM and the Ki (human A1AR [5]) was 5.8 nM.

For `CCn1cnc2c(N)nc(OCCc3ccccc3)nc21` [Compound 3, 9-ethyl-2-phenethoxyadenine], the IC50 (human A2BAR [2]) is listed as 45800 nM, the “Selectivity A1/A2A” value (human A2AAR [3]) is listed as 1.4 and the “Selectivity A3/A2A” value (human A2AAR [3]) is listed as 59. The Ki (human A2AAR [1]; [9]) was 120 nM, the Ki (human A3AR [4]) was 7150 nM and the Ki (human A1AR [5]) was 170 nM.

With `CCn1c(-c2cccs2)nc2c(N)nc(OCCc3ccccc3)nc21` [Compound 6] the Ki (human A2AAR [3]; human A2AAR in CHO cells) was 7.7 nM, the “Selectivity A1/A2A” value (human A2AAR [3]) was 2.7 and the “Selectivity A3/A2A” value (human A2AAR [3]) was 3.5. The Ki (human A3AR [6]; [10]) was 0.027 µM, the Ki (human A1AR [7]) was 21 nM and the IC50 (human A2BAR [8]; [10]) was 4.99 µM.

For `CCn1c(C2CCCO2)nc2c(N)nc(OCCc3ccccc3)nc21` (centres unmarked) [Compound 7], the Ki (human A2AAR [3]; human A2AAR in CHO cells) was 81 nM, the “Selectivity A1/A2A” value (human A2AAR [3]) was 6.3 and the “Selectivity A3/A2A” value (human A2AAR [3]) was 18. It also gave a Ki (human A3AR [6]; [10]) of 1.45 µM, a Ki (human A1AR [7]) of 509 nM and an IC50 (human A2BAR [8]; [10]) of 38.9 µM.

For `CCn1cnc2c(N)nc(OCCc3ccc(OC)cc3)nc21` [Compound 9, 9-ethyl-2-(4-methoxyphenyl)ethoxyadenine], the Ki (human A2AAR [3]; human A2AAR in CHO cells) was 655 nM, the “Selectivity A1/A2A” value (human A2AAR [3]) was 3.0 and the “Selectivity A3/A2A” value (human A2AAR [3]) was 19. The Ki (human A3AR [6]; [10]) was 12.3 µM, the Ki (human A1AR [7]) was 1990 nM and the IC50 (human A2BAR [8]; [10]) was 63.7 µM.

With `CCn1c(Br)nc2c(N)nc(OCCc3ccc(OC)cc3)nc21` [Compound 10, 8-bromo-9-ethyl-2-(4-methoxyphenethoxy)-9H-purin-6-amine] the Ki (human A2AAR [3]; human A2AAR in CHO cells) was 28 nM, the “Selectivity A1/A2A” value (human A2AAR [3]) was 7.1 and the “Selectivity A3/A2A” value (human A2AAR [3]) was 146. For the same molecule, the Ki (human A3AR [6]; [10]) was 4.06 µM, the Ki (human A1AR [7]) was 197 nM and the IC50 (human A2BAR [8]; [10]) was 9.19 µM.

With `CCn1c(-c2ccco2)nc2c(N)nc(OCCc3ccc(OC)cc3)nc21` [Compound 11] the Ki (human A2AAR [3]; human A2AAR in CHO cells) was 7.1 nM, the “Selectivity A1/A2A” value (human A2AAR [3]) was 5.5 and the “Selectivity A3/A2A” value (human A2AAR [3]) was 10. For the same molecule, the Ki (human A3AR [6]; [10]) was 0.073 µM, the Ki (human A1AR [7]) was 39 nM and the IC50 (human A2BAR [8]; bound given in µM) was greater than 100 µM.

In the case of `CCn1cnc2c(N)nc(Oc3ccc(CCO)cc3)nc21` [Compound 13, 2-(4-((6-amino-9-ethyl-9H-purin-2-yl)oxy)phenyl)ethan-1-ol], the Ki (human A2AAR [3]; human A2AAR in CHO cells) is reported as 7080 nM, the “Affinity at A2A AR, in words” value (human A2AAR [3]; human A2AAR in CHO cells) is reported as “µM affinity” and the “Selectivity A1/A2A” value (human A2AAR [3]) is reported as 3.2. For the same molecule, the Ki (human A3AR [6]; bound given in µM) was greater than 100 µM, the “Affinity at A1 AR, in words” value (human A1AR [7]) was “µM affinity” and the Ki (human A1AR [7]) was 22900 nM. For the same molecule, the IC50 (human A2BAR [8]; bound given in µM) was greater than 100 µM.

From PMC11898488, “A2A Adenosine Receptor Antagonists and Their Efficacy in Rat Models of Parkinson’s Disease” (Cells, 2025)
